# System: OVA-induced chronic allergic asthma
# Experiment: OVA-induced chronic allergic asthma model
# Assay type: in vivo, BALB/c mice
# Protocol: BALF was performed to obtain leukocytes from alveolar space. The trachea was exposed and a 1.7-mm-outside-diameter polyethylene catheter was inserted. BAL was performed by washing the lungs three-times with three different 500 µl aliquots of PBS. BALF samples were centrifuged at 600 × g for 10 min at 4 °C on a histology glass slide and stained with Diff Quick (MICROPTIC, #DQ-ST). The number of leukocytes and differential counts of different population were obtained evaluating the percentage leukocyte populations over the total cell number.
# Mice were anesthetized with a subcutaneous injection of ketamine and xylazine (130 mg/Kg ketamine and 8.5 mg/Kg xylazine) to maintain spontaneous breathing under anesthesia. Mice were tracheostomized, placed in a body plethysmograph and connected to a computer-controlled ventilator (Forced Pulmonary Maneuver System®, Buxco Research Systems©, Wilmington, North Carolina USA). First, an average breathing frequency of 160 breaths/min was imposed to the anesthetized animal by a pressure-controlled ventilation until a regular breathing pattern and complete expiration at each breathing cycle was obtained. Under mechanical respiration, respiratory flow and airway pressure were measured to compute dynamic compliance (Cdyn) and lung resistance (RL). To measure the TLC, pressure–volume maneuvers were performed, where lungs were inflated to a standard pressure of +30 cm H2O and then let slowly exhale until a negative pressure of −30 cm H2O was reached. To measure the FEV Fast-Flow Volume maneuvers was performed. In this maneuver, lungs were first inflated to +30 cm H2O (TLC) and, immediately, a negative pressure (−30 cm H2O) was applied in order to enforce expiration. To evaluate AHR, the same mice used in previous maneuvers (basal condition) received Metacholine, 1 mg/Kg (Acetyl-β-methylcholine chloride, A-2251, Sigma-Aldrich St.Louis, MO,USA) i.v., and 20 sec after, a new set of maneuvers were conducted to assess RL changes. Suboptimal maneuvers were rejected and for each test in every single mouse at least three acceptable maneuvers were conducted to obtain a reliable mean for all numeric parameters.
# On day 1, BALB/c mice received systemic immunization by subcutaneous injection of 10 µg of chicken egg ovalbumin (OVA grade V, >98% pure; Sigma, St Louis, MO) diluted in 2 mg/mL Al(OH)3 followed by a booster injection at the day 14 (described in fig. 3). Nasal challenges were performed starting at the day 28, by inhalational exposure to aerosolised ovalbumin (1% ovalbumin in saline 0,9%) for 20 min per day, in alternated days during 16 days (day 28, 30, 32, 34, 36, 38, 40, 42 and 44). At the same time, mice received daily treatment from day 28 to 44 with CL27c (2 mg/ml dissolved in 0.5 % tylaxopol/saline solution, aerosolized for 30′) or vehicle (0.5% tyloxapol/saline solution, aerosolized for 30′), or dexamethasone (5 mg/kg i.p. injection). Untreated control groups included mice challenged with PBS alone. On day 45, mice were sacrificed, and samples were collected for further analysis.
# IL-5, IL-13, eotaxin, TGF-β, KC, IL-17A, and MCP-1 levels in the BALF and anti-OVA IgE levels in serum were measured by ELISA technique using commercial DuoSet kits R&D Systems according to the instructions of the manufacturer. Results were expressed in levels of cytokines per ml of […] (pg/ml) or arbitrary units (A.U.).
# The left lung was removed and fixed in 4% neutral phosphate-buffered formalin (pH 7.4)[10]. The tissues were dehydrated gradually in ethanol, embedded in paraffin, cut into 4 µm sections, stained with H&E, Gomori’s trichrome and periodic acid schiff (PAS), and examined under light microscopy by a pathologist in a double blinded manner. Images of lung sections were captured with a digital camera (Optronics DEI-470) connected to a microscope (Olympus IX70) with a magnification of ×40 or ×100. […]
# [1] = CL27c 2 mg/ml aerosol or dexamethasone 5 mg/kg
# [2] = aerosolized CL27c 2 mg/ml daily
smiles,measurement,setting,value
COC(=O)c1cccc(Cn2cc(-c3cccc4c(=O)cc(N5CCOCC5)[nH]c34)nn2)c1 [CL27c],accumulation of inflammatory cells in peribronchial and perivascular spaces,[1],significantly decreased
same,lung function: lung resistance (RL) and dynamic compliance (Cdyn),[1],normalize lung function
same,peribronchial fibrosis (fibrotic airway remodeling),[1],significantly reduced
same,methacholine-evoked airway hyperresponsiveness,aerosolized CL27c 2 mg/ml,not able to modify methacholine-evoked airway hyperresponsiveness
same,metaplasia of goblet cells and mucus production (PAS),[2],prevented OVA-induced metaplasia of goblet cells and mucus production
same,reduction of tissue levels of eosinophil peroxidase (EPO),[2],55%
same,reduction of tissue levels of myeloperoxidase (MPO),[2],50%
same,"Th2 mediators IL-5, IL-13, and Eotaxin",repeated administration,lowering of Th2 mediators
